{"source": "patent US4605641A", "about": "“Synthetic vasoactive intestinal peptide analogs” (Hoffmann-La Roche Inc., priority 1984, dated 1986)", "key": {"[1]": {"system": "guinea pig trachea smooth muscle", "test": "Bronchodilator (relaxant) effect on isolated guinea pig tracheal rings", "format": "cell-based", "conditions": "for Relative Potency: guinea pig trachea, relative to VIP = 100%; for EC50: guinea pig tracheal rings, relaxation as % of maximum response to VIP 10^-6 M, three tissues pooled, linear regression, read-out: EC50 (M), agonist activity, bronchodilator effect", "from_the_text": "The bronchodilatory effect of VIP analogs was studied in a model utilizing guinea pig trachea. Wasserman, M. A. et al. \"Comparative In Vitro Tracheal Relaxant Effects of Porcine and Hen VIP\" in Vasoactive Intestinal Peptide ed. Said, S.I., Raven Press (New York, 1982).\nAll tissues were taken from male albino guinea pigs weighing 400-600 g, anesthetized with urethane 2 g/kg i.p. After exsanguination the trachea was removed and divided into four ring segments (3 mm length). Each ring was suspended by two 30 guage stainless steel wires in a 10 ml jacket tissue bath and attached via 4-0 silk thread to a Grass force displacement transducer (model FT03C, Grass Instrument Co., Quincy, MA), for isometric recording of tension. The smooth muscle was bathed in modified Krebs solution of the following composition: NaCl, 120 mM; KCl, 4.7 mM; CaCl2, 2.5 mM; MgSO4.7H2 O; 1.2 mM; NaHCO3, 25 mM; KH2 PO4 monobasic, 1.2 mM; and dextrose, 10 mM. Tissue baths were maintained at 37.5° C. and constantly bubbled with 95% O2 and 5% CO2. Responses were recorded on an 8 channel and 4 channel Hewlett-Packard (model 7702B and 7754A, respectively) recorder (Hewlett Packard, Paramus, NJ). Tracheal rings were placed under a resting tension of 1.5 g which was determined to be at or near optimal in preliminary experiments. Frequent readjustments of tension were required during the 60 min. stabilization period which followed. Tissues were rinsed at 15 min. intervals.\n(§1) Cumulative concentration response curves were obtained for each tissue by successive […] in the bath concentration of VIP or potential VIP agonists according to the method of VanRossum J. M., Arch. Int Pharmacodyn, 143, 299-330 (1963). Only one cummulative dose response curve was obtained on a single piece of tissue. To minimize variability between tissues, relaxant responses are expressed as a percentage of the maximum response obtainable to VIP (10^-6 M=100%) added at the end of the concentration response curve. Responses obtained from three tissues were pooled and EC50 values were determined by linear regression."}, "[2]": {"system": "Human Bronchial Smooth Muscle", "test": "Relaxation of isolated human bronchial smooth muscle rings", "format": "cell-based", "conditions": "for Rel. Potency: human bronchial smooth muscle, relative to VIP (1-28) = 100%", "experimental": "Human bronchial smooth muscle or intra-pulmonary arteries were obtained from surgical section or autopsy from Overlook Hospital, Summit, N.J. Airway or vascular rings were suspended by two 30 gauge stainless steel wires in a 10 ml jacket tissue bath and attached via 4-0 silk thread to a Grass forcer displacement transducer (model FT030C, Grass Instrument Co., Quincy, MA), for isometric recording of tension. The smooth muscle was bathed in modified Kreb's solution of the following composition: NaCl, 120 mM; KCl, 4.7 mM; CaCL2, 2.5 mM; MgSO4.7H2 O; 1.2 mM; NaHCO3, 25 mM; KH2 PO4 monobasic, 1.2 mM; and dextrose, 10 mM. Tissue baths were maintained at 37.5° C. and constantly bubbled with 95% O2 and 5% CO2. Responses were recorded on a 8 channel and 4 channel Hewlett-Packard (model 7702B and 7754A, respectively) recorder (Hewlett Packard, Paramus, NJ). All tissues were placed under a resting tension (airway, 1.5 g; vascular, 1 g) which was determined to be near optimal in preliminary experiments. Frequent readjustments of tension were required during the 120-180 min. stabilization period which followed. Tissues were rinsed at 15 min. intervals. Vascular tissues were primed once with phenylephrine (10^-5 M) and washed for an additional hour. Steady state contractions of vacular tissues were obtained with phenylephrine (10^-5 M) while airway tissues were precontracted with histamine (3×10^-4 M).\nas §1, with “noted above.” for “J. M., Arch. Int Pharmacodyn, 143, 299-330 (1963).”, “cumulative” for “cummulative”, “were” for “are”, “papaverine (vascular, 10^-4 M=100%) or isoproterenol (airway, 10^-4” for “VIP (10^-6”, “curve. […]” for “curve.”, “four” for “three”"}}}
{"smiles": "CCCC[C@H](NC(=O)[C@H](CCC(N)=O)NC(=O)[C@H](CCCCN)NC(=O)[C@H](CCCNC(=N)N)NC(=O)[C@H](CC(C)C)NC(=O)[C@H](CCCNC(=N)N)NC(=O)[C@@H](NC(=O)[C@H](Cc1ccc(O)cc1)NC(=O)[C@H](CC(N)=O)NC(=O)[C@H](CC(=O)O)NC(=O)[C@@H](NC(=O)[C@H](Cc1ccccc1)NC(=O)[C@@H](NC(=O)[C@H](C)NC(=O)[C@H](CC(=O)O)NC(=O)[C@H](CO)NC(=O)[C@H](Cc1c[nH]cn1)NC(C)=O)C(C)C)[C@@H](C)O)[C@@H](C)O)C(=O)N[C@@H](C)C(=O)N[C@H](C(=O)N[C@@H](CCCCN)C(=O)N[C@@H](CCCCN)C(=O)N[C@@H](Cc1ccc(O)cc1)C(=O)N[C@@H](CC(C)C)C(=O)N[C@@H](CC(N)=O)C(=O)N[C@@H](CO)C(=O)N[C@H](C(=O)N[C@@H](CC(C)C)C(=O)N[C@@H](CC(N)=O)C(N)=O)[C@@H](C)CC)C(C)C", "note": "[Ac--(Nle^17)--VIP, Ac-(Nle^17)VIP]", "values": [{"measurement": "Relative Potency", "setting": "[1]", "value": 111, "unit": "%"}, {"measurement": "EC50", "setting": "[1]", "value": "9e-09", "unit": "M"}, {"measurement": "Rel. Potency", "setting": "[2]", "value": 2800, "unit": "%"}]}
{"smiles": "CC[C@H](C)[C@H](NC(=O)[C@H](CO)NC(=O)[C@H](CC(N)=O)NC(=O)[C@H](CC(C)C)NC(=O)[C@H](Cc1ccc(O)cc1)NC(=O)[C@H](CCCCN)NC(=O)[C@H](CCCCN)NC(=O)[C@@H](NC(=O)[C@H](C)NC(=O)[C@H](CCSC)NC(=O)[C@H](CCC(N)=O)NC(=O)[C@H](CCCCN)NC(=O)[C@H](CCCNC(=N)N)NC(=O)[C@H](CC(C)C)NC(=O)[C@H](CCCNC(=N)N)NC(=O)[C@@H](NC(=O)[C@H](Cc1ccc(O)cc1)NC(=O)[C@H](CC(N)=O)NC(=O)[C@H](CC(=O)O)NC(=O)[C@@H](NC(=O)[C@H](Cc1ccccc1)NC(=O)[C@@H](NC(=O)[C@H](C)NC(=O)[C@H](CC(=O)O)NC(=O)[C@H](CO)NC(=O)[C@@H](N)Cc1c[nH]cn1)C(C)C)[C@@H](C)O)[C@@H](C)O)C(C)C)C(=O)N[C@@H](CC(C)C)C(=O)N[C@@H](CC(N)=O)C(N)=O", "note": "[VIP, Vasoactive intestinal peptide]", "values": [{"measurement": "Relative Potency", "setting": "[1]", "value": 100, "unit": "%"}, {"measurement": "EC50", "setting": "[1]", "value": "1e-08", "unit": "M"}, {"measurement": "Rel. Potency", "setting": "[2]", "value": 100, "unit": "%"}, {"measurement": "Bronchodilator / relaxant activity (in words)", "setting": "[2]; human in vitro tissue, summary of Table II", "value": "weak relaxant"}]}
